Source: patent US20240279278A1, “NMU RECEPTOR 2 AGONISTS” (Boehringer Ingelheim International GmbH, priority 2023, published 2024)
Each block holds one molecule with its values, some of them ahead of it. Starred links: 1 amine or outer side, 2 acyl side, 3 side chain; linkers in the order of their positions; H or OH if unused. Non-standard residues stand in square brackets, D forms with d. Residues, ends and D or L forms follow the SMILES beside them. *: point of attachment. Pipz(1-CH2CO,4-CH2CH2NH) = O=C(CN1CCN(CCN[*:1])CC1)[*:2]; γGlu = O=C(O)[C@H](CCC(=O)[*:2])N[*:1]; Stearoyl = CCCCCCCCCCCCCCCCCC(=O)*; X1 = CN(CC(=O)C(=O)[*:2])[*:1]; NMeL = CN[C@@H](CC(C)C)C(=O)O; Nle = CCCC[C@H](N)C(=O)O; Orn = NCCC[C@H](N)C(=O)O; Sar = CNCC(=O)O

Tests used:
[1] = in vivo; parameters: species or system NMRI mice; details: male, NMRI, mouse, iv
Method: Example 5: Pharmacokinetics Intravenous (iv) PK in Mouse Pharmacokinetic parameters of the test compounds were determined after intravenous administration to Naval Medical Research Institute (NMRI) mice. Male NMRI mice were obtained either from Charles River (Germany) or from Janvier (France) weighing approximately 30 g to 40 g. Mice were housed in standard cages with light cycle of 12-hour dark and 12-hour light. Standardized food and water were offered ad libitum to the animals during the whole experimental period. The respective peptide was dissolved in 50 mM phosphate buffer (pH 7.4) containing 3.5% mannitol. Intravenous doses of 30 nmol/kg were given via a tail vein. Serial blood samples were collected from the vena saphena into tubes containing EDTA as anticoagulant at different time points up to 48 hours post dosing. After centrifugation for approximately 5 minutes, plasma samples were transferred to 96-well Polymerase Chain Reaction (PCR) plates, immediately frozen and kept at approximately −20° C. until analyzed for plasma concentration by liquid chromatography mass spectrometry (LC-MS/MS). Individual plasma concentration-time profiles were analyzed by a non-compartmental approach, and the resulting pharmacokinetic parameters were determined.

[2] = molecular target: human NMUR2 receptor (Homo sapiens, UniProt Q9GZQ4); assay: IP1 Gq HTRF assay, activation of human NMUR2 in buffer; type: cell-based; parameters: expressed in transfected cells; host or cells: CHO-K1; details: selectivity for NMUR2 over NMUR1 from IP1 assay in buffer (Example 3)
Method in brief: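 IP-One HTRF competition (665/620 nm ratio) read after 1 h agonist exposure at 37 °C in pH 7.4 HEPES/HBSS stimulation buffer containing 50 mM LiCl, 0.1% BSA, 1% DMSO. Cells: CHO-K1 stably expressing human NMUR2 or NMUR1. EC50 by 4-parameter nonlinear regression of 8-point curves.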

[3] = molecular target: T1, human neuromedin U receptor 1 (human, UniProt Q9HB89 24-426); assay: cell-based or functional assay
T1 sequence (looked up): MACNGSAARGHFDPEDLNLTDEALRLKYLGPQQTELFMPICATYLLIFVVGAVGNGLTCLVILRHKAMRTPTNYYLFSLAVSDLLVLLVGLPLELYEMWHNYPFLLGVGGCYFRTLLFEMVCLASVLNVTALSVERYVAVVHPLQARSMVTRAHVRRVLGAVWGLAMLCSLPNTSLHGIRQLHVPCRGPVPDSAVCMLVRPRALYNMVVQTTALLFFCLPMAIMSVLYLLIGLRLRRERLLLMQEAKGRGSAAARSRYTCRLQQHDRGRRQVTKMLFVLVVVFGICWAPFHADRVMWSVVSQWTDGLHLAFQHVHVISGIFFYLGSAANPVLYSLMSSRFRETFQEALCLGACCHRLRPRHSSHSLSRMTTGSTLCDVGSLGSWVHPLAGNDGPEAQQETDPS

[4] = molecular target: human neuromedin U receptor 2 (human, UniProt Q9GZQ4 1-415); assay: cell-based or functional assay
Chain of human neuromedin U receptor 2 (Q9GZQ4 whole entry): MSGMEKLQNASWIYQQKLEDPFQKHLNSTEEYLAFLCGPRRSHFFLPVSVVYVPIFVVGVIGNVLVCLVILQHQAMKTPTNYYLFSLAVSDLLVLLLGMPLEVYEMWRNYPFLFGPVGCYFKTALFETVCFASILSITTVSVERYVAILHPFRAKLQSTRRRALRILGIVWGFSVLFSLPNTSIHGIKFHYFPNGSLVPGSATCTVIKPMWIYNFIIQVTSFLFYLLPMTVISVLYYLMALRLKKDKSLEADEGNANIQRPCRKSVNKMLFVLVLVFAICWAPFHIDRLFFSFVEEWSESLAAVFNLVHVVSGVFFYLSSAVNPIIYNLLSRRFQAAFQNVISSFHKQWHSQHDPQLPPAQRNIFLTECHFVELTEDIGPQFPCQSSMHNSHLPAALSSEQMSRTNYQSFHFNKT

Chain of human NMUR2 receptor (Q9GZQ4 whole entry): as above

Molecule: CCCCCCCCCCCCCCCCCC(=O)N[C@@H](CCC(=O)N[C@@H](CCC(=O)N[C@@H](CCC(=O)N(C)CC(=O)N(C)CC(=O)N(C)CC(=O)N(C)CC(=O)N(C)CC(=O)N(C)CC(=O)N(C)CC(=O)N(C)CC(=O)N(C)CC(=O)N(C)CC(=O)N(C)CC(=O)N(C)CC(=O)N(C)CC(=O)N(C)CC(=O)N(C)CC(=O)NCCN1CCN(CC(=O)N[C@@H](Cc2ccc(O)cc2)C(=O)N[C@@H](Cc2ccccc2)C(=O)N(C)[C@@H](CC(C)C)C(=O)N[C@@H](CCCC)C(=O)N[C@@H](CCCNC(=N)N)C(=O)N2CCC[C@H]2C(=O)N[C@@H](CCCNC(=N)N)C(=O)NCC(N)=O)CC1)C(=O)O)C(=O)O)C(=O)O [Ref. 1, C18A-gGlu3-Sar15-AEPipAc-Tyr-Phe-NMeLeu-Nle-Arg-Pro-Arg-Gly-NH2, reference compound] (HELM PEPTIDE1{[CCCCCCCCCCCCCCCCCC(=O)[*:2]].[gGlu].[gGlu].[gGlu].[Sar].[Sar].[Sar].[Sar].[Sar].[Sar].[Sar].[Sar].[Sar].[Sar].[Sar].[Sar].[Sar].[Sar].[Sar].[O=C(CN1CCN(CCN[*:1])CC1)[*:2]].Y.F.[meL].[Nle].R.P.R.G.[am]}$$$$V2.0)
- MRT [1]: 0.8 h
- EC50 (hNMUR1)/EC50 (hNMUR2) [2]: 4.3

Molecule: CCCC[C@H](NC(=O)[C@H](CC(C)C)N(C)C(=O)[C@H](Cc1ccccc1)NC(=O)[C@H](Cc1ccc(O)cc1)NC(=O)CN1CCN(CCNC(=O)CN(C)C(=O)CN(C)C(=O)CN(C)C(=O)CN(C)C(=O)CN(C)C(=O)CN(C)C(=O)CN(C)C(=O)CN(C)C(=O)CN(C)C(=O)CN(C)C(=O)CN(C)C(=O)CN(C)C(=O)CN(C)C(=O)CN(C)C(=O)CN(C)C(=O)CC[C@H](NC(=O)CC[C@H](NC(=O)CC[C@H](NC(=O)CCCCCCCCCCCCCCCCC(=O)O)C(=O)O)C(=O)O)C(=O)O)CC1)C(=O)N[C@@H](CCCNC(=N)N)C(=O)N1CCC[C@H]1C(=O)N[C@@H](CCCNC(=N)N)C(=O)NCC(N)=O [Ref. 2, C18DA-gGlu3-Sar15-AEPipAc-Tyr-Phe-Leu-Nle-Arg-Pro-Arg-Gly-NH2, reference compound] (HELM PEPTIDE1{[O=C(O)CCCCCCCCCCCCCCCCC(=O)[*:2]].[gGlu].[gGlu].[gGlu].[Sar].[Sar].[Sar].[Sar].[Sar].[Sar].[Sar].[Sar].[Sar].[Sar].[Sar].[Sar].[Sar].[Sar].[Sar].[O=C(CN1CCN(CCN[*:1])CC1)[*:2]].Y.F.[meL].[Nle].R.P.R.G.[am]}$$$$V2.0)
- MRT [1]: 7.9 h

Molecule: CCCCCCCCCCCCCCCCCCCC(=O)N[C@@H](CCC(=O)N[C@@H](CCC(=O)N[C@@H](CCC(=O)N(C)CC(=O)N(C)CC(=O)N(C)CC(=O)N(C)CC(=O)N(C)CC(=O)N(C)CC(=O)N(C)CC(=O)N(C)CC(=O)N(C)CC(=O)N(C)CC(=O)N(C)CC(=O)N(C)CC(=O)N(C)CC(=O)N(C)CC(=O)N(C)CC(=O)NCCN1CCN(CC(=O)N[C@@H](Cc2ccc(O)cc2)C(=O)N[C@@H](Cc2ccccc2)C(=O)N(C)[C@@H](CC(C)C)C(=O)N[C@@H](CCCC)C(=O)N[C@@H](CCCNC(=N)N)C(=O)N2CCC[C@H]2C(=O)N[C@@H](CCCNC(=N)N)C(=O)NCC(N)=O)CC1)C(=O)O)C(=O)O)C(=O)O [Ref. 3, C20A-gGlu3-Sar15-AEPipAc-Tyr-Phe-NMeLeu-Nle-Orn-Pro-Arg-Gly-NH2, reference compound] (HELM PEPTIDE1{[CCCCCCCCCCCCCCCCCCCC(=O)[*:2]].[gGlu].[gGlu].[gGlu].[Sar].[Sar].[Sar].[Sar].[Sar].[Sar].[Sar].[Sar].[Sar].[Sar].[Sar].[Sar].[Sar].[Sar].[Sar].[O=C(CN1CCN(CCN[*:1])CC1)[*:2]].Y.F.[meL].[Nle].R.P.R.G.[am]}$$$$V2.0)
- MRT [1]: 1.7 h
- EC50 (hNMUR1)/EC50 (hNMUR2) [2]: 6.1

Molecule: CCCC[C@H](NC(=O)[C@H](CC(C)C)N(C)C(=O)[C@H](Cc1ccccc1)NC(=O)[C@H](Cc1ccc(O)cc1)NC(=O)CN1CCN(CCNC(=O)CN(C)C(=O)CN(C)C(=O)CN(C)C(=O)CN(C)C(=O)CN(C)C(=O)CN(C)C(=O)CN(C)C(=O)CN(C)C(=O)CN(C)C(=O)CN(C)C(=O)CN(C)C(=O)CN(C)C(=O)CN(C)C(=O)CN(C)C(=O)CN(C)C(=O)CC[C@H](NC(=O)CC[C@H](NC(=O)CC[C@H](NC(=O)CCCCCCCCCCCCCCCCCCC(=O)O)C(=O)O)C(=O)O)C(=O)O)CC1)C(=O)N[C@@H](CCCNC(=N)N)C(=O)N1CCC[C@H]1C(=O)N[C@@H](CCCNC(=N)N)C(=O)NCC(N)=O [Ref. 4, C20DA-gGlu3-Sar15-AEPipAc-Tyr-Phe-Leu-Nle-Orn-Pro-Arg-Gly-NH2, reference compound] (HELM PEPTIDE1{[O=C(O)CCCCCCCCCCCCCCCCCCC(=O)[*:2]].[gGlu].[gGlu].[gGlu].[Sar].[Sar].[Sar].[Sar].[Sar].[Sar].[Sar].[Sar].[Sar].[Sar].[Sar].[Sar].[Sar].[Sar].[Sar].[O=C(CN1CCN(CCN[*:1])CC1)[*:2]].Y.F.[meL].[Nle].R.P.R.G.[am]}$$$$V2.0)
- MRT [1]: 22.5 h
- EC50 (hNMUR1)/EC50 (hNMUR2) [2]: 25.0

- MRT [1]: 2.2 h
- EC50 (hNMUR1)/EC50 (hNMUR2) [2]: 7.9
Molecule: CCCCCCCCCCCCCCCCCC(=O)N[C@@H](CCC(=O)N[C@@H](CCC(=O)N[C@@H](CCC(=O)N(C)CC(=O)C(=O)N[C@@H](CCC(=O)N(C)CC(=O)N(C)CC(=O)N(C)CC(=O)N(C)CC(=O)N(C)CC(=O)N(C)CC(=O)N(C)CC(=O)N(C)CC(=O)N(C)CC(=O)NCCN1CCN(CC(=O)N[C@@H](Cc2ccc(O)cc2)C(=O)N[C@@H](Cc2ccccc2)C(=O)N(C)[C@@H](CC(C)C)C(=O)N[C@@H](CCCC)C(=O)N[C@@H](CCCN)C(=O)N2CCC[C@H]2C(=O)N[C@@H](CCCNC(=N)N)C(=O)NCC(N)=O)CC1)C(=O)O)C(=O)O)C(=O)O)C(=O)O [Ref. 5, C18A-gGlu3-Sar12-AEPipAc-Tyr-Phe-NMeLeu-Nle-Orn-Pro-Arg-Gly-NH2, reference compound] ({Stearoyl-γGlu-γGlu-γGlu}-[X1][γGlu][Sar][Sar][Sar][Sar][Sar][Sar][Sar][Sar][Sar][Pipz(1-CH2CO,4-CH2CH2NH)]YF[NMeL][Nle][Orn]PRG-NH2)

- MRT [1]: 4.2 h
- EC50 (hNMUR1)/EC50 (hNMUR2) [2]: 32.4
Molecule: CCCC[C@H](NC(=O)[C@H](CC(C)C)NC(=O)[C@H](Cc1ccccc1)NC(=O)[C@H](Cc1ccc(O)cc1)NC(=O)CN1CCN(CCNC(=O)CN(C)C(=O)CN(C)C(=O)CN(C)C(=O)CN(C)C(=O)CN(C)C(=O)CN(C)C(=O)CN(C)C(=O)CN(C)C(=O)CN(C)C(=O)CC[C@H](NC(=O)C(=O)CN(C)C(=O)CC[C@H](NC(=O)CC[C@H](NC(=O)CC[C@H](NC(=O)CCCCCCCCCCCCCCCCC(=O)O)C(=O)O)C(=O)O)C(=O)O)C(=O)O)CC1)C(=O)N[C@@H](CCCN)C(=O)N1CCC[C@H]1C(=O)N[C@@H](CCCNC(=N)N)C(=O)NCC(N)=O [Ref. 6, C18DA-gGlu3-Sar12-AEPipAc-Tyr-Phe-Leu-Nle-Orn-Pro-Arg-Gly-NH2, reference compound]

- EC50 (activity as measured in Example 3) [3]: 0.2 nM
- EC50 (activity as measured in Example 3) [4]: 0.046 nM
B1: C18A-gGlu3-Sar15-AEPipAc-Tyr-Phe-NMeLeu-Nle-Arg-Pro-Arg-Gly-NH2 (peptide)
peptide: EEEXXXXXXXXXXXXXXXXYFLXRPRG
HELM: PEPTIDE1{[CCCCCCCCCCCCCCCCCC(=O)[*:2]].[gGlu].[gGlu].[gGlu].[Sar].[Sar].[Sar].[Sar].[Sar].[Sar].[Sar].[Sar].[Sar].[Sar].[Sar].[Sar].[Sar].[Sar].[Sar].[O=C(CN1CCN(CCN[*:1])CC1)[*:2]].Y.F.[meL].[Nle].R.P.R.G.[am]}$$$$V2.0
SMILES: CCCCCCCCCCCCCCCCCC(=O)N[C@@H](CCC(=O)N[C@@H](CCC(=O)N[C@@H](CCC(=O)N(C)CC(=O)N(C)CC(=O)N(C)CC(=O)N(C)CC(=O)N(C)CC(=O)N(C)CC(=O)N(C)CC(=O)N(C)CC(=O)N(C)CC(=O)N(C)CC(=O)N(C)CC(=O)N(C)CC(=O)N(C)CC(=O)N(C)CC(=O)N(C)CC(=O)NCCN1CCN(CC(=O)N[C@@H](Cc2ccc(O)cc2)C(=O)N[C@@H](Cc2ccccc2)C(=O)N(C)[C@@H](CC(C)C)C(=O)N[C@@H](CCCC)C(=O)N[C@@H](CCCNC(=N)N)C(=O)N2CCC[C@H]2C(=O)N[C@@H](CCCNC(=N)N)C(=O)NCC(N)=O)CC1)C(=O)O)C(=O)O)C(=O)O
